Data on one compound can be found in US9617262B2, “Antibacterial cyclopental[C]pyrrole substituted 3,4-dihydro-1H-[1,8]naphthyridinones” (Janssen Sciences Ireland UC, priority 2011, dated 2017).

Series [1] is described as follows: In vivo pharmacokinetic and oral bioavailability. The following applies: male Swiss mice. How it is done: The in vivo pharmacokinetics and oral bioavailability of the compound of the examples was/is investigated in male Swiss mice (fed) following single intravenous (i.v.) bolus and oral (p.o.) administration. For the i.v. and p.o. solution formulations, the compound was/is dissolved in a 20% HP-β-CD solution. The pH of the formulations was/is around pH 4. All i.v. formulations were isotonic.

Series [2] deals with Staphylococcus aureus ATCC 29213; reference strain MSSA. The series can be described thus: Antimicrobial spectrum, broth microdilution MIC. The class given is cell-based. The following applies: S. aureus ATCC 29213. How it is done: (§1) Minimum Inhibitory Concentrations (MICs) were determined in accordance with the Clinical and Laboratory Standards Institute (CLSI) methodology against aerobic bacteria (CLSI M07-A8) (see Clinical and Laboratory Standards Institute. 2009. Methods for dilution antimicrobial susceptibility tests for bacteria that grow aerobically. CLSI document M07-A8, Vol. 29, No. 2.) by the broth microdilution method with cation-adjusted Mueller-Hinton broth (CA-MHB) medium for the majority of organisms, except for Haemophilus influenza, where Haemophilis test medium (HTM) broth was used. Descriptions of the individual organisms can be found in the table. Where possible, ATCC standard strains were tested.
(§2) The inoculum density for the susceptibility testing was standardized to give a final inoculum of approximately 5×10^5 CFU/mL.
(§3) Stock solutions of the compounds were prepared in DMSO at concentrations of 1 mg/mL. Linezolid was prepared in DMSO at a concentration of 2 mg/mL. Stock solutions of all compounds were diluted into CA-MHB to give a range of two-fold dilutions, depending upon the sensitivity of the organism being tested.
For orientation: Dilution methods test growth across graded concentrations, often in twofold steps.

Series [3] deals with Staphylococcus aureus NRS120; LZD-R. The series can be described thus: Antimicrobial spectrum, broth microdilution MIC. The class given is cell-based. The following applies: S. aureus NRS120. How it is done:
as §1, §2, §3

Series [4] concerns Staphylococcus aureus NRS121; LZD-R. Nature of the series: Antimicrobial spectrum, broth microdilution MIC. The class given is cell-based. Conditions: S. aureus NRS121. How it is done:
as §1, §2, §3

Series [5] has as its system Escherichia coli ATCC 25922; reference strain. Nature of the series: Antimicrobial spectrum, broth microdilution MIC. Type of series: cell-based. Conditions: E. coli ATCC 25922. The protocol: as §1, §2, §3
For series [6], the system named is Staphylococcus aureus ATCC 43300; reference strain MRSA. The series can be described thus: Antimicrobial spectrum, broth microdilution MIC. The class given is cell-based. Conditions: S. aureus ATCC 43300. The protocol: as §1, §2, §3
The test system of series [7] is Escherichia coli Tol C mutant. The series can be described thus: Antimicrobial spectrum, broth microdilution MIC. Type of series: cell-based. Conditions: E. coli tolC mutant. How it is done:
as §1, §2, §3

Series [8] deals with Staphylococcus aureus NRS119; LZD-R. The series can be described thus: Antimicrobial spectrum, broth microdilution MIC. Type of series: cell-based. Conditions: S. aureus NRS119. The protocol:
as §1, §2, §3

Series [9] addresses S. aureus ATCC 29213 FabI (Staphylococcus aureus (strain MRSA252), UniProt Q6GI75). The series can be described thus: Staphylococcus aureus FabI enzyme inhibition assay. The class given is biochemical. The following applies: pH 6.5, 30 minutes at room temperature. How it is done:
FabI enzyme inhibition assays were carried out in half-area, 384-well microtitre plates. Compounds were evaluated in 40-μl assay mixtures containing 100 mM NaADA, pH 6.5 (ADA=N-[2-acetamido]-2iminodiacetic acid), 250 μM crotonoyl-CoA, 625 μM NADH and 50 μg/ml S. aureus ATCC 29213 FabI. Inhibitors were typically varied over the range of 50 to 0.39 μM. The reaction mixtures were incubated for 30 minutes at room temperature and the reaction was stopped by adding 200 mM Tris buffer (pH 9.0) to create a pH-shift. The consumption of NADH was monitored by measuring the change in absorbance at […]. By comparing sample readings to those of negative (absence of compound) and positive (absence of enzyme) controls, the percent inhibition of enzymatic activity of the compounds was determined. A best-fit curve is fitted by a minimum of squares method. From this an IC50-value (expressed in μg/ml), resulting in 50% inhibition of enzymatic activity, was obtained.

The subject of series [10] is Staphylococcus aureus ATCC 29213. The series can be described thus: Antibacterial susceptibility testing: IC90 determination (STA). The class given is cell-based. The following applies: STA ATCC 29213, 90% inhibitory concentration for bacterial growth. How it is done: (§4) The following bacteria were used: Staphylococcus aureus ATCC 29213, methicillin-resistant Staphylococcus aureus (MRSA) ATCC 700788 and Escherichia coli ATCC 35218. The bacteria used in this study were grown overnight in flasks containing 100 ml Mueller-Hinton broth (Difco cat. nr. 0757-17) in sterile de-ionized water, with shaking, at 37° C. Stocks were store at −70° C. until use.
(§5) Bacteria were incubated on a tryptic soy agar plate containing 5% sheep blood (Becton Dickinson cat. nr. 254053) for 18-24 hours at 35° C. in aerobic conditions (first passage). For the second passage, fresh Mueller-Hinton broth is inoculated with 5-10 colonies and grown overnight at 35° C. until turbidity (reaching log-phase) in aerobic conditions is reached. The bacterial suspension is then adjusted to 0.5 McFarland density and further diluted 1:100 in Mueller Hinton broth medium. This is used as inoculum.
(§6) MIC assays were performed by the broth microdilution method in a 96-well format (flat-bottom microtitre plates) with a final volume of 0.1 ml Mueller Hinton broth containing two-fold serial dilutions of compounds and inoculated with 5×10^5 CFU/ml of bacteria (standard inoculum size according to CLSI guidelines). Inhibitors are typically varied over the range of 63 to 0.49 μM. The final DMSO concentration in the assay was 1.25% (maximum tolerable DMSO concentration=6%). In the assays where the effect of human serum on the activity of the compounds against S. aureus was tested, human serum was added at a final concentration of 10%. The plates were incubated at 35° C. for 16-20 hours. At the end of incubation the bacterial growth was quantified fluorometrically. For this, resazurin was added to all wells and the plates were re-incubated. The incubation time is dependent on the type of bacteria. A change in color from blue to pink indicated the growth of bacteria. The fluorescence was read in computer-controlled fluorometer (Fluoroskan Ascent FL, Labsystems) at an excitation wavelength 540 nm and an emission wavelength of 590 nm. The % growth inhibition achieved by the compounds was calculated according to standard methods. The IC90 (expressed in μg/ml) was defined as the 90% inhibitory concentration for bacterial growth. A panel of reference compounds were simultaneously tested for QC approval.

For another series, the system named is Human HelaM cells. Nature of the series: Cytotoxicity MTT assay (TOX HELAM). Type of series: cell-based. The following applies: 72 hours. How it is done: Cytotoxicity of the compounds was evaluated using the MTT assay. Human HelaM cells grown in 96-well plates were exposed to serial dilutions of the tested compounds (final volume of 0.2 ml) and incubated for 72 hours at 37° C. and 5% CO2. Inhibitors are typically varied over the range of 25 to 0.8 μM. The final DMSO concentration in the assay is 0.5%. MTT (3-(4,5-Dimethylthiazol-2-yl)-2,5-diphenyltetrazolium bromide, a tetrazole) was added and reduced to purple formazan only in living cells. Solubilization of the formazan crystals was achieved by adding 100 μl 2-propanol. Cell viability was determined by measuring the absorbance of the reduced formazan, giving a purple color, at 540 nm and 690 nm. The absorbance measured at 690 nm was automatically subtracted from the absorbance at 540 nm, to eliminate the effects of non-specific absorption. The percent cytotoxicity achieved by the compounds was calculated according to standard methods. Cytotoxicity is reported as CC50, the concentration that causes a 50% reduction in cell viability.
The results are depicted in the table D2 below (TOX HELAM).
For orientation: Formazan colour is commonly taken as a measure of viable cells.

The subject of a further series is S. aureus. Nature of the series: Antibacterial susceptibility testing: IC90 determination with 10% human serum (STA + 10% HS). The class given is cell-based, Staphylococcus aureus. Conditions: human serum at a final concentration of 10%. How it is done:
as §4, §5, §6
The results are depicted in the table D2 below (STA+10% HS).

SMILES strings stand for the structures. Converted amounts (≈) assume the structure as drawn.

What is called Cmax is the highest concentration seen after dosing. Broadly, the Tmax is the time from dosing to the highest level. As a reminder, the MIC90 is the lowest concentration that inhibits either 90% of growth or 90% of the strains tested, depending on the study.

Regarding `O=C1CCc2cc(/C=C/C(=O)N3CC4C=C(c5ccccc5)CC4C3)cnc2N1` (stereo not drawn) [compound 1], the AUC0-inf in series [1] (i.v. 2.5 mg/kg) turned out to be 7074 ng·h/mL; in series [1] (p.o. 5 mg/kg) it was 12158 ng·h/mL. The “Half life (t1/2)” value in series [1] (i.v. 2.5 mg/kg) is given as 2.9 h; in [1] (p.o. 5 mg/kg) it was 3.1 h. Moreover, the “Plasma clearance Cl” value in series [1] (i.v. 2.5 mg/kg) turned out to be 5.83 mL/min/kg. The Vdz in series [1] (i.v. 2.5 mg/kg) amounted to 1.5 L/kg. In addition, the C0 in series [1] (i.v. 2.5 mg/kg, 20% HP-β-CD solution) was found to be 2921 ng/mL. The compound further returned an Oral bioavailability in series [1] (p.o. 5 mg/kg vs i.v. 2.5 mg/kg) of 86%. The compound also had a Cmax in series [1] (p.o. 5 mg/kg) of 1720 ng/mL. Moreover, the time to peak (Tmax) in [1] (p.o. 5 mg/kg) came to 2.0 h. For the same compound, the MIC90 in series [2] was 0.016 µg/mL (≈ 0.0415 µM); in [3], 0.016 µg/mL (≈ 0.0415 µM); in series [4] it was 0.016 µg/mL (≈ 0.0415 µM); in series [5], greater than 32 µg/mL; in series [6], 0.016 µg/mL (≈ 0.0415 µM); in [7], “≦0.03 μg/ml”. The MIC90 in series [8] was 0.03 µg/mL (≈ 0.0778 µM). Also, the “FabI IC50” value in [9] was determined as 0.32 µg/mL. The “STA (361.159) IC90” value in [10] stood at 0.09 µg/mL. Also, the “TOX HELAM (222.125) CC50” value in the series on Human HelaM cells was greater than 3.8547 µg/mL. Also, the “STA + 10% HS (361.169) IC90” value in the series on S. aureus came to 0.17 µg/mL.
